Data published in patent publication US20110033946A1, “DETECTION OF SHORT-CHAIN FATTY ACIDS IN BIOLOGICAL SAMPLES” (HEMAQUEST PHARMACEUTICALS, INC., priority 2009, published 2011).
Several values for one entry are separate records, joined by “and”; a condition that tells them apart may be missing. Identical values can stand only once.

Experiments:
Type in all cases: physicochemical
[1] = Long-term freezer stability in dog plasma; conditions: approximately −70° C.
Description: For the remaining validation tests, a calibration curve and triplicates QCs at the low, mid and high levels were analyzed with each sample set. The following samples were also analyzed either in conjunction with one of the precision and accuracy runs or in one of the additional validation runs: Samples from six lots of control dog plasma for specificity. Two concentration levels of unextracted QC-samples in triplicate (solvent standards) were analyzed for the evaluation of the recovery of sodium 2,2-dimethylbutyrate and DMV in dog plasma. Two levels of QC samples (Low QC and High QC in triplicate) were subjected to three freeze/thaw cycles at approximately −70° C. prior to extraction to evaluate freeze/thaw stability. Two levels of QC samples (Low QC and High QC in triplicate) were placed on the bench top for approximately 17 hours prior to extraction for the evaluation of the bench top stability. Triplicate low QC samples and triplicate high QC samples were stored for one month and three months in a freezer at approximately −70° C., and then extracted and analyzed to evaluate long term stability in dog plasma. Three aliquots of a dilution QC sample diluted 10-fold. QC-Low and QC-High plasma samples, which had been stored in a freezer at approximately −70° C. for one month and three months (99 days), were extracted in triplicate and analyzed. All CV % values and RE % values are within the acceptance criteria (≦15% and ±15% respectively). Therefore, sodium 2,2-dimethylbutyrate can be considered stable in dog plasma at approximately −70° C. for at least […].

[2] = Extract autosampler stability (human plasma extract); conditions: for Extract autosampler stability, Mean concentration / Extract autosampler stability, RE % (mean vs nominal) / Extract autosampler stability, concentration found (replicate): at least 71 hours in autosampler, ambient
Description: (§1) The following samples were also analyzed either in conjunction with one of the precision and accuracy runs or in one of the additional validation runs. Samples from six lots of control human plasma for specificity. Samples from six lots of control human plasma fortified with internal standard for specificity. Two concentration levels of unextracted QC-samples in triplicate (solvent standards) were analyzed for the evaluation of the recovery of sodium 2,2-dimethylbutyrate and DMV in human plasma. Two levels of QC samples (Low QC and High QC in triplicate) were subjected to three freeze/thaw cycles at approximately −70° C. prior to extraction to evaluate freeze/thaw stability. Two levels of QC samples (Low QC and High QC in triplicate) were placed on the bench top for approximately 17 hours prior to extraction for the evaluation of the bench top stability. Triplicate low QC samples and triplicate high QC samples were stored for one month and three months in a freezer at approximately −70° C., and then extracted and analyzed to evaluate long term stability in human plasma. Two levels of extracted QC samples (Low QC and High QC) were re-analyzed after approximately 71 hours in the autosampler at room temperature to evaluate the extract autosampler stability. Two levels of extracted QC samples (Low QC and High QC) were re-analyzed after approximately 8 hours in the freezer at approximately −20° C. to evaluate the extract freeze stability. Three aliquots of a dilution QC sample diluted 10-fold. Triplicate dilutions of the old stock solution (stored at approximately 4° C.) and new stock solutions prepared at intervals of two weeks and one month. Statistical calculations in the report tables were calculated from unrounded concentration values taken directly from the raw data. The concentration values were rounded for display purposes.
After extraction, the QC samples were analyzed and left in the autosampler for at least 71 hours, then re-injected onto the LC-MS/MS. Triplicate QC-Low and QC-High samples were analyzed for the autosampler stability determination. The CV % values for the QC-Low and QC-High stability samples are 7.5% and 6.4%, respectively. To calculate the RE %, the measured mean concentration was compared to the nominal concentration. The RE % values for the QC-Low and QC-High stability samples are 1.9% and 4.6%, respectively.

[3] = Stock solution stability at approximately 4° C. (old vs new stock peak areas); conditions: for Stock solution stability, RE % (to New) of old stock peak area: approximately 4° C.
Description: as §1, with “The following LC-MS/MS conditions were applied for the analysis of underivatized sodium 2,2-dimethylbutyrate and DMV for stock solution stability analysis (2 to 3.5 month), and system suitability associated with these analyses: The following” for “The following”, “display purposes. Fresh stock solutions of sodium 2,2-dimethylbutyrate were prepared at intervals of two weeks and 1, 2, 3 and 3.5 months after the initial standard preparation. Similarly, the stability intervals for DMV were two weeks and 1, 2 and 3 months. The initial (or old) stock solutions and the fresh stock solutions were diluted into the calibration standard range and analyzed. The peak areas for the fresh (new) and old standard solutions were compared. Beginning with the 2-month stability analysis, sodium 2,2-dimethylbutyrate and DMV stock solutions were analyzed underivatized. This was done since the peak areas of both sodium 2,2-dimethylbutyrate and DMV varied among replicate derivatized preparations. Analyzing the standard solutions underivatized was a simpler procedure which gave more accurate and precise results” for “display purposes.”

[4] = Stock solution stability at nominal 4° C. (Example 5); conditions: nominal temperature of 4° C.
Description: In method I, the mobile phase of liquid chromatography was run on 0.1% formic acid in acetonitrile, and the elution volume was 10 ul. In method II, the mobile phase was run in 0.1% formic acid in methanol/water (98/2, volume to volume), and the elution volume was 5 ul.

[5] = 1 Month Interval, QC-High, nominal 40.0 μg/mL
[6] = 1 Month Interval, QC-Low, nominal 0.60 μg/mL
[7] = 3 Month Interval (99 days), QC-High, nominal 40.0 μg/mL
[8] = 3 Month Interval (99 days), QC-Low, nominal 0.60 μg/mL

CCC(C)(C)C(=O)[O-].[Na+] [Sodium 2,2-Dimethylbutyrate]
Time stable in freezer [1]: at least 99 days | Long-term freezer stability, Mean concentration [1, 5]: 36.1 µg/mL | Long-term freezer stability, RE % (mean vs nominal) [1, 5]: −9.9% | Long-term freezer stability, concentration found (replicate) [1, 5]: 36.4 µg/mL and 36.3 µg/mL and 35.5 µg/mL | Long-term freezer stability, Mean concentration [1, 6]: 0.575 µg/mL | Long-term freezer stability, RE % (mean vs nominal) [1, 6]: −4.2% | Long-term freezer stability, concentration found (replicate) [1, 6]: 0.586 µg/mL and 0.567 µg/mL and 0.572 µg/mL | Long-term freezer stability, Mean concentration [1, 7]: 35.0 µg/mL | Long-term freezer stability, RE % (mean vs nominal) [1, 7]: −12.5% | Long-term freezer stability, concentration found (replicate) [1, 7]: 36.1 µg/mL and 37.1 µg/mL and 31.7 µg/mL | Long-term freezer stability, Mean concentration [1, 8]: 0.61 µg/mL | Long-term freezer stability, RE % (mean vs nominal) [1, 8]: 1.0% | Long-term freezer stability, concentration found (replicate) [1, 8]: 0.629 µg/mL and 0.621 µg/mL and 0.568 µg/mL | Time stable in the extract in the autosampler ([2]; ambient storage in the autosampler): at least 71 hours | Extract autosampler stability, Mean concentration ([2]; QC-High, nominal 40.0 μg/mL): 41.8 µg/mL | Extract autosampler stability, RE % (mean vs nominal) ([2]; QC-High, nominal 40.0 μg/mL): 4.6% | Extract autosampler stability, concentration found (replicate) ([2]; QC-High, nominal 40.0 μg/mL): 42.9 µg/mL and 43.8 µg/mL and 38.8 µg/mL | Extract autosampler stability, Mean concentration ([2]; QC-Low, nominal 0.60 μg/mL): 0.611 µg/mL | Extract autosampler stability, RE % (mean vs nominal) ([2]; QC-Low, nominal 0.60 μg/mL): 1.9% | Extract autosampler stability, concentration found (replicate) ([2]; QC-Low, nominal 0.60 μg/mL): 0.663 µg/mL and 0.575 µg/mL and 0.596 µg/mL | Stock solution stability, RE % (to New) of old stock peak area ([3]; 1 Month Interval): 10.3% | Stock solution stability, RE % (to New) of old stock peak area ([3]; 2 Month Interval, underivatized): 2.2% | Stock solution stability, RE % (to New) of old stock peak area ([3]; 2 Week Interval): −8.6% | Stock solution stability, RE % (to New) of old stock peak area ([3]; 3 Month Interval, underivatized): 1.6% | Stock solution stability, RE % (to New) of old stock peak area ([3]; ~3.5 Month Interval, underivatized): −2.2% | Time stock solutions are stable ([3]; stock solution in acetonitrile/water stored in a refrigerator at approximately 4° C.): at least 3.5 months | Time stock solutions are stable [4]: at least 115 days
